According to ChEMBL document CHEMBL4304747, “Structural Tailoring of a Novel Fluorescent IRE-1 RNase Inhibitor to Precisely Control Its Activity” (J Med Chem, 2019):
Values belong to the compound of their own block, whether it stands above or below them. Calls of active or inactive are those of the source. No cut-off for these calls is given here.

How the values were obtained:
[1] = target: Serine/threonine-protein kinase/endoribonuclease IRE1 (Mus musculus) (UniProt Q9EQY0); test: (§1) Binding affinity to IRE1 in mouse 5TGM1 cells assessed as inhibition of IRE1/XBP1 pathway activation by measuring reduction in XBP1s expression at 10 uM measured up to 24 hrs by immunoblot analysis; type: cell-based
Sequence of Serine/threonine-protein kinase/endoribonuclease IRE1 (Mus musculus) (Q9EQY0 whole entry): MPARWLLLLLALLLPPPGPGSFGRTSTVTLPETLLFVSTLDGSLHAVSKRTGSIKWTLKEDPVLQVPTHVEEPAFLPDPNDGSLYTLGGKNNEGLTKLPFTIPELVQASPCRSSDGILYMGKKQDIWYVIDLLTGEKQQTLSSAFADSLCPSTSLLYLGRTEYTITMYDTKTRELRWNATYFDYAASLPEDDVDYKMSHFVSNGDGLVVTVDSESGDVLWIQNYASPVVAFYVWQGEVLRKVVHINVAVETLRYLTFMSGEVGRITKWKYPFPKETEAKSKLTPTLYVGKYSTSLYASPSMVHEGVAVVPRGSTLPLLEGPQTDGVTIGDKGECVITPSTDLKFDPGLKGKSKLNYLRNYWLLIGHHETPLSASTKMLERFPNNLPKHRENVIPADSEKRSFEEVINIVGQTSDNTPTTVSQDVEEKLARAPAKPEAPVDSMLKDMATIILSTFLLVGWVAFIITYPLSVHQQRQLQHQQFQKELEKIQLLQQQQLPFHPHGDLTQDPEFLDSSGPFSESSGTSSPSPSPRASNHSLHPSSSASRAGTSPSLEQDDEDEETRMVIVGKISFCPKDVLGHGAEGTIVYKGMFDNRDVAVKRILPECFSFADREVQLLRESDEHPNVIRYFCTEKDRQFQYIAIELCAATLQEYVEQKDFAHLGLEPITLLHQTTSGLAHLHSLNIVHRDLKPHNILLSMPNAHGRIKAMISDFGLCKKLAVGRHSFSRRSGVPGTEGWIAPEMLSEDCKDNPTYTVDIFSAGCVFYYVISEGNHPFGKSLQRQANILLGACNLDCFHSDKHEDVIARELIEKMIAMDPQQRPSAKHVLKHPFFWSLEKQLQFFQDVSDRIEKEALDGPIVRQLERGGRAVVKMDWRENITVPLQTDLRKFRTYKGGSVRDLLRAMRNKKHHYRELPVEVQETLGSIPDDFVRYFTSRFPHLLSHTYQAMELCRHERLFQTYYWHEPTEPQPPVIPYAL

5TGM1 [2] = test: Cytotoxicity against mouse 5TGM1 cells assessed as growth inhibition at 20 uM measured after 3 days by XTT assay; type: functional, cell-based
[3] = target: Serine/threonine-protein kinase/endoribonuclease IRE1 (Mus musculus) (UniProt Q9EQY0); test: Binding affinity to IRE1 in mouse 5TGM1 cells assessed as inhibition of IRE1/XBP1 pathway activation by measuring reduction in XBP1s expression at 10 uM measured after 2 days by immunoblot analysis; type: cell-based
[4] = Stability in PBS/DMSO assessed as increase in fluorescence intensity at 10 uM at 365 nm light illumination by fluorescence imaging analysis
[5] = Stability in PBS/DMSO assessed as increase in fluorescence intensity at 10 uM; type: physicochemical; conditions: buffer
5TGM1 [6] = test: Cytotoxicity against mouse 5TGM1 cells assessed as growth inhibition at 20 uM measured after 4 days by XTT assay; type: functional, cell-based
[7] = target: Serine/threonine-protein kinase/endoribonuclease IRE1 (Mus musculus) (UniProt Q9EQY0); test: Binding affinity to IRE1 in mouse 5TGM1 cells assessed as inhibition of IRE1/XBP1 pathway activation by measuring reduction in XBP1s expression at 10 uM measured after 3 days by immunoblot analysis; type: cell-based
[8] = target: Serine/threonine-protein kinase/endoribonuclease IRE1 (Mus musculus) (UniProt Q9EQY0); test: Binding affinity to IRE1 in mouse 5TGM1 cells assessed as inhibition of IRE1/XBP1 pathway activation by measuring reduction in XBP1s expression at 5 uM measured after 24 hrs by immunoblot analysis; type: cell-based
[9] = Stability in PBS/DMSO assessed as compound decomposition by measuring decrease in fluorescence intensity at 10 uM measured after 48 hrs; type: physicochemical; conditions: read-out: Drug degradation
[10] = target: Serine/threonine-protein kinase/endoribonuclease IRE1 (Mus musculus) (UniProt Q9EQY0); test: Binding affinity to IRE1 in mouse 5TGM1 cells assessed as inhibition of IRE1/XBP1 pathway activation by measuring reduction in XBP1s expression at 2.5 uM measured up to 4 hrs by immunoblot analysis; type: cell-based
Homo sapiens [11] = species on record: Homo sapiens; test: Cytotoxicity against human WaC3 cells assessed as growth inhibition at 20 uM measured after 3 days by XTT assay; type: functional, cell-based
[12] = Drug metabolism in RPMI media assessed as hydrolysis at measured up to 25 hrs by HPLC analysis
[13] = target: Serine/threonine-protein kinase/endoribonuclease IRE1 (Mus musculus) (UniProt Q9EQY0); test: Binding affinity to IRE1 in LPS-stimulated mouse primary B cells assessed as inhibition of IRE1/XBP1 pathway activation by measuring reduction in XBP1s expression at 2.5 to 5 uM measured after 2 hrs by immunoblot analysis
[14] = Stability in PBS/DMSO assessed as change in fluorescence intensity at 10 uM at 460 nm; type: physicochemical; conditions: buffer
[15] = Drug metabolism in pH 7.4 PBS/DMSO assessed as 1,3-dioxane acetal hydrolysis measured after 48 hrs by HPLC analysis
[16] = target: Serine/threonine-protein kinase/endoribonuclease IRE1 (Mus musculus) (UniProt Q9EQY0); test: as §1, with “uM preincubated for 4 hrs followed by three times compound washout and subsequent 1 mW/cm2 UV irradiation for 10 mins” for “uM”, “after 8” for “up to 24”; type: cell-based
[17] = Drug metabolism in RPMI media assessed as 1,3-dioxane acetal hydrolysis measured after 96 hrs by HPLC analysis
[18] = Stability in PBS/DMSO assessed as change in fluorescence intensity at 10 uM; type: physicochemical; conditions: buffer
Homo sapiens [19] = species on record: Homo sapiens; test: Cytotoxicity against human WaC3 cells assessed as growth inhibition at 20 uM measured after 1 day by XTT assay; type: functional, cell-based
[20] = target: Serine/threonine-protein kinase/endoribonuclease IRE1 (Mus musculus) (UniProt Q9EQY0); test: Binding affinity to IRE1 in mouse 5TGM1 cells assessed as inhibition of IRE1/XBP1 pathway activation by measuring reduction in XBP1s expression at 10 uM measured after 4 hrs by immunoblot analysis; type: cell-based
[21] = Stability in RPMI media measured after 96 hrs by HPLC analysis; type: physicochemical
[22] = target: Serine/threonine-protein kinase/endoribonuclease IRE1 (Mus musculus) (UniProt Q9EQY0); test: Binding affinity to IRE1 in mouse 5TGM1 cells assessed as inhibition of IRE1/XBP1 pathway activation by measuring reduction in XBP1s expression at 10 uM irradiated with 1 mW/cm2 UV light for up to 10 mins and measured after 4 hrs by immunoblot analysis; type: cell-based
[23] = Prodrug conversion in DMSO/PBS solution assessed as DF07 formation by measuring increase in fluorescence intensity at 10 uM irradiated with 1 mW/cm2 UV light relative to control; type: ADME
[24] = Prodrug conversion in cytoplasm of mouse 5TGM1 cells assessed as DF07 formation by measuring increase in fluorescence intensity at 10 uM treated for 4 hrs measured 10 secs post irradiation with 50 mW DAPI filtered diode laser by confocal microscopic analysis; type: ADME, subcellular; conditions: 5tgm1, 4 h
[25] = Stability in pH 7.4 PBS/DMSO measured after 48 hrs by HPLC analysis; type: physicochemical; conditions: buffer, pH 7.4, 48 h

inhibition [1]: Active
SMILES: C=CCOC(=O)N1CCc2c(c(=O)oc3c(C=O)c(O)ccc23)C1

inhibition [1]: Active
inhibition [3]: inactive
Stability [5]: Stable
SMILES: CN1CCc2c(c(=O)oc3c(C=O)c(O)ccc23)C1
growth inhibition (GI) (5TGM1 [2]): Active
Stability [4]: Stable
growth inhibition (GI) (5TGM1 [6]): Active

inhibition [7]: Active
inhibition [8]: Active
degraded at 48 h, 10 µM [9]: 5.1%
SMILES: O=c1oc2c(C3OCCCO3)c(O)ccc2c2c1CNCC2
growth inhibition (GI) (5TGM1 [6]): Active

inhibition [8]: Active
Stability [5]: Stable
degraded at 48 h, 10 µM [9]: 60%
SMILES: CC1(C)COC(c2c(O)ccc3c4c(c(=O)oc23)CNCC4)OC1

inhibition [10]: Active
inhibition [7]: Active
inhibition [13]: Active
Stability [5]: Unstable
SMILES: CC(=O)N/N=C/c1c(O)ccc2c3c(c(=O)oc12)CN(C)CC3
growth inhibition (GI) (Homo sapiens [11]): Active
Drug metabolism [12]: Metabolite detected

inhibition [7]: Active
Stability [14]: Stable
inhibition [16]: inactive
SMILES: COc1cc2c3c(c(=O)oc2c(C2OCCCO2)c1O)CN(C)CC3
growth inhibition (GI) (5TGM1 [2]): Active
growth inhibition (GI) (Homo sapiens [11]): Active
Drug metabolism [15]: 70%
Drug metabolism [17]: 70%

inhibition [10]: Active
inhibition [7]: Active
Stability [18]: Unstable
SMILES: COc1cc2c3c(c(=O)oc2c(/C=N/NC(C)=O)c1O)CN(C)CC3
growth inhibition (GI) (Homo sapiens [11]): inactive
growth inhibition (GI) (Homo sapiens [19]): Active

inhibition [7]: Active
Stability [14]: Stable
SMILES: COc1cc2c3c(c(=O)oc2c(C2OCCCO2)c1O)CNCC3

SMILES: COc1cc2c3c(c(=O)oc2c(C2OCCCO2)c1OC(C)c1ccc(C(=O)OCC[Si](C)(C)C)cc1[N+](=O)[O-])CN(C)CC3 (stereo not given)
inhibition [20]: inactive
Stability [21]: Stable
inhibition [22]: Active
fold change (FC) [23]: 75
inhibition [16]: Active
Drug metabolism [24]: Metabolite_Detected
Stability [25]: Stable

inhibition [10]: Active
inhibition [7]: Active
Stability [5]: Stable
SMILES: CN1CCc2c(c(=O)oc3c(C4OCCCO4)c(O)ccc23)C1
growth inhibition (GI) (5TGM1 [2]): Active
growth inhibition (GI) (Homo sapiens [11]): Active
Drug metabolism [12]: Metabolite detected
growth inhibition (GI) (5TGM1 [6]): Active

inhibition [1]: Active
inhibition [3]: inactive
Stability [5]: Stable
SMILES: O=Cc1c(O)ccc2c3c(c(=O)oc12)CNCC3
Stability [4]: Stable
growth inhibition (GI) (5TGM1 [6]): Active

Stability [5]: Unstable
SMILES: CN1CCc2c(c(=O)oc3c(/C=N/N4CCCCC4)c(O)ccc23)C1

Stability [5]: Unstable
SMILES: O=c1oc2c(/C=N/N3CCCCC3)c(O)ccc2c2c1CNCC2
